Data: patent US9247741B2, “Use of macrocyclic picolinamides as fungicides” (DOW AGROSCIENCES LLC, priority 2013, dated 2016)

Key:
Phakopsora pachyrhizi = assay: Asian soybean rust (PHAKPA) disease control; format: in vivo; details: 25 ppm; for PHAKPA 1DP disease control rating: 1 Day Protectant; for PHAKPA 3DC disease control rating: 3 Day Curative
Protocol: Evaluation of Fungicidal Activity: Asian Soybean Rust (Phakopsora pachyrhizi; Bayer Code PHAKPA)
Technical grades of materials were dissolved in acetone, which were then mixed with nine volumes of water containing 0.011% Tween 20. The fungicide solutions were applied onto soybean seedlings using an automated booth sprayer to run-off. All sprayed plants were allowed to air dry prior to further handling.
Soybean plants (variety Williams 82) were grown in soil-less Metro mix, with one plant per pot. Two weeks old seedlings were used for testing. Plants were inoculated either 3 days prior to or 1 day after fungicide treatments. Plants were incubated for 24 h in a dark dew room at 22° C. and 100% RH then transferred to a growth room at 23° C. for disease to develop. Disease severity was assessed on the sprayed leaves.

Venturia inaequalis = assay: Apple scab (VENTIN) disease control; format: in vivo; details: 1 Day Protectant, 100 ppm
Protocol: Technical grades of materials were dissolved in acetone, which were then mixed with nine volumes of water containing 110 ppm Triton X-100. The fungicide solutions were applied onto wheat seedlings using an automated booth sprayer to run-off. All sprayed plants were allowed to air dry prior to further handling. All fungicides were evaluated using the aforementioned method for their activity vs. all target diseases. Wheat leaf blotch and brown rust activity were also evaluated using track spray applications, in which case the fungicides were formulated as EC formulations, containing 0.1% Trycol 5941 in the spray solutions. Wheat plants (variety Yuma) were grown from seed in a greenhouse in 50% mineral soil/50% soil-less Metro mix until the first leaf was fully emerged, with 7-10 seedlings per pot. These plants were inoculated with an aqueous spore suspension of Septoria tritici either prior to or after fungicide treatments. After inoculation the plants were kept in 100% relative humidity (one day in a dark dew chamber followed by two to three days in a lighted dew chamber at 20° C.) to permit spores to germinate and infect the leaf. The plants were then transferred to a greenhouse set at 20° C. for disease to develop. When disease symptoms were fully expressed on the l^st leaves of untreated plants, infection levels were assessed on a scale of 0 to 100 percent disease severity. Percent disease control was calculated using the ratio of disease severity on treated plants relative to untreated plants. Evaluation of Fungicidal Activity: Apple Scab (Venturia inaequalis; Bayer code […]) Apple seedlings (variety McIntosh) were grown in soil-less Metro mix, with one plant per pot. Seedlings with two expanding young leaves at the top (older leaves at bottom of the plants were trimmed) were used in the test. Plants were inoculated with a spore suspension of Venturia inaequalis 24 hr after fungicide treatment and kept in a 22° C. dew chamber with 100% RH for 48 hr, and then moved to a greenhouse set at 20° C. for disease to develop. Fungicide formulation, application and disease assessment on the sprayed leaves followed the procedures as described in the Example A.

Erysiphe cichoracearum = assay: Powdery mildew of cucumber (ERYSCI) disease control; format: in vivo; details: Golovinomyces cichoracearum, 24 h, 1 Day Protectant, read-out: ERYSCI disease control rating
Protocol: Technical grades of materials were dissolved in acetone, which were then mixed with nine volumes of water containing 110 ppm Triton X-100. The fungicide solutions were applied onto wheat seedlings using an automated booth sprayer to run-off. All sprayed plants were allowed to air dry prior to further handling. All fungicides were evaluated using the aforementioned method for their activity vs. all target diseases. Wheat leaf blotch and brown rust activity were also evaluated using track spray applications, in which case the fungicides were formulated as EC formulations, containing 0.1% Trycol 5941 in the spray solutions. Wheat plants (variety Yuma) were grown from seed in a greenhouse in 50% mineral soil/50% soil-less Metro mix until the first leaf was fully emerged, with 7-10 seedlings per pot. These plants were inoculated with an aqueous spore suspension of Septoria tritici either prior to or after fungicide treatments. After inoculation the plants were kept in 100% relative humidity (one day in a dark dew chamber followed by two to three days in a lighted dew chamber at 20° C.) to permit spores to germinate and infect the leaf. The plants were then transferred to a greenhouse set at 20° C. for disease to develop. When disease symptoms were fully expressed on the l^st leaves of untreated plants, infection levels were assessed on a scale of 0 to 100 percent disease severity. Percent disease control was calculated using the ratio of disease severity on treated plants relative to untreated plants. Evaluation of Fungicidal Activity: Powdery Mildew of Cucumber (Erysiphe cichoracearum; Bayer Code […]) Cucumber seedlings (variety Bush Pickle) were grown in soil-less Metro mix, with one plant per pot, and used in the test when 12 to 14 days old. Plants were inoculated with a spore suspension 24 hr following fungicide treatments. After inoculation the plants remained in the greenhouse set at 20° C. until disease was fully expressed. Fungicide formulation, application and disease assessment on the sprayed leaves followed the procedures as described in the Example A.

CCCO[C@H]1CCC[C@H](NC(=O)c2nccc(OC)c2OCOC(C)=O)C(=O)O[C@@H](C)[C@@H]1CCC(C)C [Compound 25, ((2-(((3S,7S,8S,9S)-8-isopentyl-9-methyl-2-oxo-7-propoxyoxonan-3-yl)carbamoyl)-4-methoxypyridin-3-yl)oxy)methyl acetate]
PHAKPA 1DP disease control rating (Phakopsora pachyrhizi): A (>70) | PHAKPA 3DC disease control rating (Phakopsora pachyrhizi): B (≦70) | VENTIN disease control rating (Venturia inaequalis): A (>70) | pest or weed control at 100 ppm (Erysiphe cichoracearum): < 70%

CCCO[C@H]1CCC[C@H](NC(=O)c2nccc(OC)c2OC(C)=O)C(=O)O[C@@H](C)[C@@H]1CCC(C)C [Compound 74, 2-(((3S,7S,8S,9S)-8-isopentyl-9-methyl-2-oxo-7-propoxyoxonan-3-yl)carbamoyl)-4-methoxypyridin-3-yl acetate]
melting point: 46 to 50 °C | PHAKPA 1DP disease control rating (Phakopsora pachyrhizi): A (>70) | PHAKPA 3DC disease control rating (Phakopsora pachyrhizi): B (≦70) | VENTIN disease control rating (Venturia inaequalis): A (>70) | pest or weed control at 100 ppm (Erysiphe cichoracearum): > 70%

CCCC[C@H]1[C@H](C)OC(=O)[C@@H](NC(=O)c2nccc(OC)c2OCOC(C)=O)CCC[C@@H]1OCC1CC1 [Compound 73]
pest or weed control at 100 ppm (Erysiphe cichoracearum): < 70%

COc1ccnc(C(=O)N[C@H]2CCC[C@H](OCC3CC3)[C@@H](Cc3ccc(F)cc3)[C@H](C)OC2=O)c1OCOC(C)=O [Compound 61]
pest or weed control at 100 ppm (Erysiphe cichoracearum): < 70%

CCCO[C@H]1CCC[C@H](NC(=O)c2nccc(OC)c2OC(C)=O)C(=O)O[C@@H](C)[C@@H]1Cc1ccccc1 [Compound 70]
melting point: 56 to 61 °C | PHAKPA 1DP disease control rating (Phakopsora pachyrhizi): A (>70) | PHAKPA 3DC disease control rating (Phakopsora pachyrhizi): B (≦70) | VENTIN disease control rating (Venturia inaequalis): A (>70) | pest or weed control at 100 ppm (Erysiphe cichoracearum): < 70%

COc1ccnc(C(=O)N[C@H]2CCC[C@H](Oc3ccccc3)[C@@H](CCC(C)C)[C@H](C)OC2=O)c1OC(C)=O [Compound 36]
PHAKPA 1DP disease control rating (Phakopsora pachyrhizi): A (>70) | PHAKPA 3DC disease control rating (Phakopsora pachyrhizi): B (≦70) | VENTIN disease control rating (Venturia inaequalis): B (≦70) | pest or weed control at 100 ppm (Erysiphe cichoracearum): > 70%

COc1ccnc(C(=O)N[C@H]2CCC[C@H](Oc3ccccc3)[C@@H](CCC(C)C)[C@H](C)OC2=O)c1OCOC(C)=O [Compound 40]
melting point: 47 to 51 °C | PHAKPA 1DP disease control rating (Phakopsora pachyrhizi): A (>70) | PHAKPA 3DC disease control rating (Phakopsora pachyrhizi): B (≦70) | VENTIN disease control rating (Venturia inaequalis): A (>70) | pest or weed control at 100 ppm (Erysiphe cichoracearum): > 70%

CCCC[C@H]1[C@H](C)OC(=O)[C@@H](NC(=O)c2nccc(OC)c2OCOC(C)=O)CCC[C@@H]1Oc1ccccc1 [Compound 33]
pest or weed control at 100 ppm (Erysiphe cichoracearum): > 70%
